Data reported in patent EP0563345B1, “NOVEL 4-ARYLPIPERAZINES AND 4-ARYLPIPERIDINES” (MCNEILAB, INC., priority 1991, dated 1993).
Where a name gives a salt, the structure may show the parent alone.

Key:
Male, Fischer 344 rats = test: Block of Conditioned Avoidance Responding (Rat) test (CAR); details: for CAR 5 mg/kg IP Administration (% change CAR) / CAR 15 mg/kg IP Administration (% change CAR): negative number = blockade of CAR
Description: Apparatus: Rat operant chambers, housed within sound attenuated booths, both from Capden Instruments Ltd., were used in this test. The test chamber (8" H x […] D) is constructed of aluminum and plexiglass with floor grid bars of stainless-steel (1/8" O.D.) spaced 9/16" apart. A stainless-steel operation level 1-1/2" wide projects 3/4" into the chamber and is positioned 2-2/8" above the grid floor. The shock stimulus is delivered via the grid floor by a Coulbourn Instruments solid state module. The parameters of the test and the collection of data are controlled automatically.
The rats are trained for two weeks to approach criterion levels in the avoidance test (90% avoidance rate). One-hour training sessions are run at about the same time each day for four or five days a week. The training session consists of 120 trials, with the conditioned stimuli presented every 30 sec. A trial begins with presentation of the conditioned stimuli (a light and a tone). If the rat responds by depressing the operant lever during the 15-second presentation of the conditioned stimuli, the trial is terminated and the animal is credited with a CAR. Failure to respond during the conditioned stimuli causes the presentation of the unconditioned stimulus (UCS), a 0.7 mA shock which is accompanied by a light and tone for five seconds. If the rat depressed the lever within the ten-second period, the shock and trial are terminated and an escape response recorded. If the rat fails to depress the lever during the UCS (shock), the trial is terminated after ten seconds of shock and the absence of a response is scored as a failure to escape. Intertrial level presses have no effect. If a rat performs at the 90% CAR level for two weeks, it is then run twice a week on the test schedule (see below) until baseline performance stabilized.
Trained rats are run in a one-hour session on two consecutive days at the same time and in the same test chamber each day. The sessions consist of 60 trials, one every minute. The conditioned stimuli are presented for 15 sec (maximum) and the unconditioned stimuli five sec (maximum). On Day 1, a vehicle solution is administered to the rats at a time preceding the trial run corresponding to the pretreatment time for the test compound. The route of administration and the volume of vehicle are also matched to that of the test compound.
The percent change in CAR on the drug treatment day compared to vehicle pretreatment day is the key measure. The percent change (% change) in CAR is determined using the following formula: % change CAR = ((% CAR for Day 2/% CAR for Day 1) x 100)-100 [formula]
A negative number indicates a blockade of CAR, whereas a positive number would indicate increased CAR. The test results are reported as the mean % change for the group of rats. Failure to escape, a measure of the general sedative potential of the compound, was calculated for each animal as follows: % Failures = # of Failures to Escape/# of trials [formula]
The % failures, viz., loss of escape, is also reported as a group mean. Failures to escape are monitored closely and a session is terminated if ten failures occurred.
In the Tables and formulas therein, OiPr is isopropoxy, Me is methyl, MeO is methoxy, Et is ethyl, Ph is phenyl, n-Bu is normal butyl, cC6H11 is cyclohexyl, BOC is t-butyloxycarbonyl, Ac is acetyl, and NT is not tested in that partcular test. The escape loss numbers are shown at CAR 5 mg/kg unless otherwise noted.

Male Charles-River rats = test: Rat Glass Bead Test (propulsive motility of the distal colon); format: in vivo; details: mean expulsion time of glass bead
Procedure: The rat glass bead test is used to evaluate the action of compounds on propulsive motility of the distal colon. Male Charles-River rats weighing 50-90 grams are fasted for at least 18 hours in individual cages with water provided. Groups of rats are then dosed by the indicated route at the appropriate pretreatment time. A 4 mm glass bead is then inserted 3.5 cm into the distal colon through the anus using a 4 mm diameter glass rod. Rats are then placed in open top glass jars and observed for 60 minutes. The time for expulsion of the bead is noted for each rat. Rats not expelling the bead after 60 minutes are necropsied and the presence of the bead in the colon confirmed. […] Statistical analysis is done using one way analysis of variance and Fisher's LSD comparison. A probability of less than 0.05 is considered to be statistically significant.

[1] = molecular target: T1, D-2 (dopamine-2) receptors (Rattus norvegicus, UniProt P61169); test: biochemical; format: binding, male, Wistar rats; details: rat striatum P2 fraction, 3H-spiperone 0.05 nM; read-out: Receptor Binding (Ki nM) D2
T1 construct: The D2 assay employed a P2 fraction from the striatum, the ligand ^3H-spiperone at a concentration of 0.05 nM; from tissue; host or cells: rat striatum, P2 fraction (synaptosomal membranes), male Wistar rats
Procedure: The dopamine D2 binding activity of compounds was determined using a P2 fraction (synaptosomal membranes) prepared from male, Wistar rats.
The data from this assay were analyzed by calculating the percent inhibition of the binding of the tritiated ligands by given concentrations of the test compound. Kl values, where given, were obtained from the logit analysis of concentration-inhibition curves.

T1 sequence (P61169 whole entry): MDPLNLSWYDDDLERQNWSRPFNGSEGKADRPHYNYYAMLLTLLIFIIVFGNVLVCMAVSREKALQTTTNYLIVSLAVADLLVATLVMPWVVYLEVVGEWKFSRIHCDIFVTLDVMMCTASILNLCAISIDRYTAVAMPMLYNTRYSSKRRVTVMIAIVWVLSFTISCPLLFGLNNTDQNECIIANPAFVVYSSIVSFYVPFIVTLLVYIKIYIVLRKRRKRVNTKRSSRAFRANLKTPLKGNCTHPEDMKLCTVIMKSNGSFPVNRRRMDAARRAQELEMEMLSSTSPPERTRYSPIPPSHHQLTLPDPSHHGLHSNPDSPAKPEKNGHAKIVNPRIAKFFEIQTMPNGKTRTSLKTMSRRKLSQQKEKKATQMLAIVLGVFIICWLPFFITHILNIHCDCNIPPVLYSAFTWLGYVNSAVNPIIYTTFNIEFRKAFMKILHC

(Escape Loss) % failures to escape (Male, Fischer 344 rats; at CAR 5 mg/kg IP)	Ki [1]	(Escape Loss) % failures to escape (Male, Fischer 344 rats; at CAR 15 mg/kg IP)	SMILES	CAR 5 mg/kg IP Administration (% change CAR) (Male, Fischer 344 rats)	Glass bead expulsion time (Male Charles-River rats; IP, 1.0 mg/kg)	CAR 15 mg/kg IP Administration (% change CAR) (Male, Fischer 344 rats)	Glass bead expulsion time (Male Charles-River rats; PO, 40.0 mg/kg)	Glass bead expulsion time (Male Charles-River rats; PO, 10.0 mg/kg)
27%			CC(C)Oc1ccccc1N1CCN(Cc2cccc(C(=O)N3CCCCCCC3)c2)CC1 [Compound 55]	-93%	13 min			
25%	4.8 nM		CC(C)Oc1ccccc1N1CCN(Cc2cccc(C(=O)N3CCCC(C)(C)C3)c2)CC1 [Compound 57]	-86%	22 min			
9%	9 nM		CC1CCN(C(=O)c2cccc(CN3CCN(c4ccccc4OC(C)C)CC3)c2)CC1 [Compound 58]	-81%	29 min			
10%	7.2 nM		CC(C)Oc1ccccc1N1CCN(Cc2cccc(C(=O)N3[C@H](C)CCC[C@@H]3C)c2)CC1 [Compound 59, 1-[3-[[4-[2-(1-Methylethoxy)phenyl]-1-piperazinyl]methyl]-benzoyl]-2,6-dimethylpiperidine hydrochloride (3:2)]	-72%	43 min			
1%	121 nM		CCOC(=O)N1CCN(C(=O)c2cccc(CN3CCN(c4ccccc4OC(C)C)CC3)c2)CC1 [Compound 63]	-20%	41 min			
2%	15 nM		CCCCN(C)C(=O)c1cccc(CN2CCN(c3ccccc3OC(C)C)CC2)c1 [Compound 70]	-68%	14 min			
		0%	CC(C)Oc1ccccc1N1CCN(Cc2cccc(C(=O)NC3CCCCC3)c2)CC1 [Compound 71]		23 min	-86%		
21%			CC(C)Oc1ccccc1N1CCN(Cc2cccc(C(=O)N(C)C3CCCCC3)c2)CC1 [Compound 72]	-99%	29 min			
22%			CC(=O)N(C)C(=O)c1cccc(CN2CCN(c3ccccc3OC(C)C)CC2)c1 [Compound 73]	-48%			25 min	
27%	46 nM		CC(C)Oc1ccccc1N1CCN(Cc2cccc(C(N)=O)c2)CC1 [Compound 77]	-89%	12 min			
2%	45 nM		CC(C)Oc1ccccc1N1CCN(Cc2cccc(S(=O)(=O)N3CCCC(C)(C)C3)c2)CC1 [Compound 104]	-4%				50 min
0%	18 nM		CC(C)Oc1ccccc1N1CCN(Cc2cccc(S(=O)(=O)N3CCCCC3)c2)CC1 [Compound 105]	-7%				10 min

More lines, now with the values behind:

SMILES	(Escape Loss) % failures to escape (Male, Fischer 344 rats; at CAR 5 mg/kg IP)	Ki [1]	(Escape Loss) % failures to escape (Male, Fischer 344 rats; at CAR 15 mg/kg IP)	CAR 5 mg/kg IP Administration (% change CAR) (Male, Fischer 344 rats)	Glass bead expulsion time (Male Charles-River rats; IP, 1.0 mg/kg)	CAR 15 mg/kg IP Administration (% change CAR) (Male, Fischer 344 rats)	Glass bead expulsion time (Male Charles-River rats; PO, 40.0 mg/kg)	Glass bead expulsion time (Male Charles-River rats; PO, 10.0 mg/kg)
COc1cc2c(cc1OC)CN(C(=O)c1cccc(CN3CCN(c4ccccc4OC(C)C)CC3)c1)CC2 [Compound 60]		11 nM	7%		18 min	-93%		
CC(C)Oc1ccccc1N1CCN(Cc2cccc(C(=O)N3CCN(c4ccccc4)CC3)c2)CC1 [Compound 62]	23%	10.4 nM		-28%	21 min			
CC(C)Oc1ccccc1N1CCN(Cc2cccc(C(=O)N3CCCCC3=O)c2)CC1.O=C(O)/C=C/C(=O)O [Compound 66, 1-[3-[[4-[2-(1-Methylethoxy)phenyl]-1-piperazinyl]methyl]benzoyl]-2-piperidone Fumarate]			0%		18 min	-92%		
CC(C)Oc1cc(F)ccc1N1CCN(Cc2cccc(C(=O)N3CCCCC3)c2)CC1 [Compound 78]	4%			-82%	28 min			
CC(C)Oc1cc(F)ccc1N1CCN(Cc2cccc(C(=O)N3CCCCCC3)c2)CC1 [Compound 79]	44%	12 nM		-86%	17 min			
CCCc1ccccc1N1CCN(Cc2cccc(C(=O)N3CCCCC3)c2)CC1 [Compound 81]			0%		22 min	-8%		
CCCc1ccccc1N1CCN(Cc2cccc(C(=O)N3CCCCCC3)c2)CC1 [Compound 82]		41 nM	0%		16 min	-8%		
CCOc1ccccc1N1CCN(Cc2cccc(C(=O)N3CCCCCC3)c2)CC1 [Compound 83]	26%			-97%	21 min			
COc1ccccc1N1CCN(Cc2cccc(C(=O)N3CCCCCCC3=O)c2)CC1 [Compound 86]		121 nM	17%		22 min	-27%		
O=C(c1cccc(CN2CCN(c3ccccc3C(F)(F)F)CC2)c1)N1CCCCC1 [Compound 88]		281 nM	7%		29 min	-60%		
O=C(c1cccc(CN2CCN(c3ccccc3Cl)CC2)c1)N1CCCCC1 [Compound 89]			0%		16 min	-68%		
N#Cc1ccccc1N1CCN(Cc2cccc(C(=O)N3CCCCC3)c2)CC1 [Compound 90]	5%			-74%	27 min			
O=C(c1cccc(CN2CCN(c3cccc(C(F)(F)F)c3)CC2)c1)N1CCCCC1 [Compound 92]			3%		17 min	-72%		
CC(C)Oc1ccccc1N1CCN(Cc2ccc(C(=O)N3CCCCC3)cc2)CC1.Cl.Cl [Compound 103, 1-[4-[[4-[2-(1-Methylethoxy)phenyl]-1-piperazinyl]methyl]benzoyl]piperidine Dihydrochloride]		~100 nM			43 min			
CC(C)Oc1ccccc1N1CCN(Cc2ccccc2C(=O)N(C)C2CCCC2)CC1 [Compound 112]		16 nM			11 min			
CC(C)Oc1ccccc1N1CCN(Cc2ccccc2C(=O)N2CCCCCC2)CC1 [Compound 113]		11 nM						15 min
